[ ]: non-standard residue; d: D form. NMeF = CN[C@@H](Cc1ccccc1)C(=O)O; NMeA = CN[C@@H](C)C(=O)O
What was measured:
[1] = system: Lolium multiflorum (Ray grass); details: previously reported cyclotetrapeptides; cited from earlier work
[2] = qualitative; cited from earlier work
HepG2 cells = details: qualitative; cited from earlier work
[3] = system: Lolium multiflorum (Ray grass); assay: Herbicidal activity, germination in agar methodology; format: in vivo; details: 67 μg/mL in agar; Ryegrass, 12 days; three replicates; Figure S48
[4] = system: Microcystis aeruginosa strain (MVCC42); assay: Cyanobacteria growth inhibition; details: colistin 30 μg/mL, positive control; duplicates, 7–10 days
[5] = system: microcystins in Microcystis (MVCC42) cultures; format: cell-based, Microcystis aeruginosa

cyclo(AL[dF]G) [compound 16]
radicle growth inhibition (reported activity) [1]: 41%

cyclo(NMe-Ala-Leu-NMe-Δ^z-Phe-Gly) (head to tail) [Tentoxin]
phytotoxic effect on seedlings [2]: causes seedling chlorosis

cyclo([NMeA]LFG) [compound 17]
radicle growth inhibition (reported activity) [1]: 71%

cyclo([NMeA]L[NMeF]G) [compound 24]
radicle growth inhibition (reported activity) [1]: 81%

versicotide D
cytotoxicity on HepG2 cells (HepG2 cells): low cytotoxicity | phytotoxicity [2]: high phytotoxicity

NH-MeAla-Leu-D-Phe-β-Ala-OH [compound 29]
leaf development (%) [3]: not active

CCc1cccc(C)c1N(C(=O)CCl)[C@@H](C)COC [Positive control, S-metolachlor]
reduction of chlorophyll a (%) [4]: 99%

colistine
inhibition of microcystins concentration (%) [5]: 90%

— paper PMC11079878 (ACS Omega, 2024)
